From ChEMBL document CHEMBL1130257, “(Aryloxy)alkylamines as selective human dopamine D4 receptor antagonists: potential antipsychotic agents” (J Med Chem, 1997)

Legend:
[1] = target: D(3) dopamine receptor (Homo sapiens, UniProt P35462); test: biochemical
Description: Binding affinity against cloned human dopamine receptor D3 expressed in Chinese hamster ovary (CHO) K-1 cells by displacement of [3H]spiperone.

[2] = target: T1, D(4) dopamine receptor (Homo sapiens, UniProt P21917); test: biochemical
T1 sequence (P21917 whole entry): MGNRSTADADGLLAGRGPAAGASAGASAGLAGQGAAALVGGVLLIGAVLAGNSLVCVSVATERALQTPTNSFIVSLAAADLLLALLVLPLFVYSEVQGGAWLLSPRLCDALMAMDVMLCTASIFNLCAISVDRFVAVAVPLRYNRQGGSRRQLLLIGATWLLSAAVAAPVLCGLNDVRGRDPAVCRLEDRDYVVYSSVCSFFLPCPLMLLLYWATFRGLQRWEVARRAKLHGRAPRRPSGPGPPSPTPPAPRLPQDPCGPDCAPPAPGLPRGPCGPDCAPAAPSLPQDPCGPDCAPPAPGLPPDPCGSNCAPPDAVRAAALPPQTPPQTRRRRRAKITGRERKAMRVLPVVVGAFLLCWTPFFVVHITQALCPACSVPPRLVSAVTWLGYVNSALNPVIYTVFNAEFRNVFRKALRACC
Description: Binding affinity to recombinant human dopamine receptor D4 expressed in CHO cells by displacement of [3H]spiperone

Sequence of D(3) dopamine receptor (P35462 whole entry): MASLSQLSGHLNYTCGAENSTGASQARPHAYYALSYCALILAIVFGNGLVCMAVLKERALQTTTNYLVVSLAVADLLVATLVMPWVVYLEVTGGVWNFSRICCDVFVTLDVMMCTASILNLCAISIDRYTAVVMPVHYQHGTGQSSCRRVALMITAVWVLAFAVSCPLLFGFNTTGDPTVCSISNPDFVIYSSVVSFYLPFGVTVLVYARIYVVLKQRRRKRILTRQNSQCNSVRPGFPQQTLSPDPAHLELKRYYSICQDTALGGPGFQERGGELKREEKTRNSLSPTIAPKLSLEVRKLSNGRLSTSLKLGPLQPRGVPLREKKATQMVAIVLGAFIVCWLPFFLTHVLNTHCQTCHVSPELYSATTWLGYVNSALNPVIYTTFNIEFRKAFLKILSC

Ki [1] [µM] | Ki [2] [µM] | SMILES
0.177 | 0.0056 | Cc1ccc(OCCCNCCOc2ccc(Cl)cc2)cc1
0.232 | 0.00096 | Cc1ccc(OCCNCCCOc2ccc(F)cc2)cc1
 | 0.00031 | Clc1cccc(OCCNCCCOc2ccccc2)c1
1.7 | 0.027 | Cc1ccc(OCCNCCCOc2ccc(Br)cc2)cc1
0.169 | 0.00052 | Cc1ccc(OCCNCCCOc2ccccc2)cc1
 | 0.0027 | Cc1ccc(OCCCNCCOc2ccccc2)cc1
0.136 | 0.002 | c1ccc(OCCCNCCOc2ccccc2)cc1
0.236 | 0.0031 | Oc1ccc(OCCNCCCOc2ccccc2)cc1
 | 0.074 | Cc1ccccc1OCCNCCCOc1ccccc1
0.017 | 0.0044 | Clc1ccccc1OCCNCCCOc1ccccc1
 | 0.0047 | Cc1ccc(CCCNCCCOc2ccccc2)cc1
0.345 | 0.0044 | O=[N+]([O-])c1ccc(OCCNCCCOc2ccccc2)cc1
0.073 | 0.00035 | Cc1ccc(OCCNCCCOc2ccccc2)cc1C
 | 0.03 | Cc1ccc(SCCNCCCOc2ccccc2)cc1
0.235 | 0.011 | Cc1ccc(OCCCNCCOc2ccc(C)cc2)cc1
0.098 | 0.00084 | Fc1ccc(OCCCNCCOc2ccc(Cl)cc2)cc1
0.056 | 0.0008 | Cc1ccc(OCCNCCCSc2ccccc2)cc1
 | > 1 | O=C(O)c1ccc(OCCNCCCOc2ccccc2)cc1
 | 0.00046 | Cc1cccc(OCCNCCCOc2ccccc2)c1
0.095 | 0.0014 | Clc1ccc(OCCNCCCSc2ccccc2)cc1
0.381 | 0.0011 | Cc1ccc(OCCNCCCOc2ccccc2C)cc1
 | 0.033 | Clc1ccc(SCCNCCCOc2ccccc2)cc1
0.192 | 0.0012 | Cc1ccc(OCCNCCCOc2cccc(C)c2)cc1
 | 0.038 | Clc1ccc(OCCNCCCOc2ccc(Br)cc2)cc1
0.369 | 0.0054 | COc1ccc(OCCNCCCOc2ccccc2)cc1

SMILES | Ki [1] [µM] | Ki [2] [µM]
Cc1ccc(OCCNCCCOc2ccccc2)cc1Cl | 0.0039 | 0.00052
c1ccc(CCCNCCCOc2ccccc2)cc1 | 0.017 | 0.0033
